Laboratory results from PubChem BioAssay (NCI).
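Dose response: 5 concentrations. Exposure: 48 h. Format: 96-well plates. Endpoint: linear interpolation; highest concentration if not reached. GI50: concentration for 50% inhibition of growth. At the TGI there is no net growth.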

Legend:
Experiment in all cases: NCI-60 cell line screen, 48 h
OVCAR-3 ovarian = tested on: OVCAR-3 ovarian
K-562 leukemia = tested on: K-562 leukemia
BT-549 breast = tested on: BT-549 breast
RXF 393 renal = tested on: RXF 393 renal
SK-MEL-2 melanoma = tested on: SK-MEL-2 melanoma
LOX IMVI melanoma = tested on: LOX IMVI melanoma
PC-3 prostate = tested on: PC-3 prostate
A549 NSCLC = tested on: A549 NSCLC
MALME-3M melanoma = tested on: MALME-3M melanoma
T-47D breast = tested on: T-47D breast
NCI-H460 lung = tested on: NCI-H460 lung
SF-295 CNS = tested on: SF-295 CNS
OVCAR-4 ovarian = tested on: OVCAR-4 ovarian
HOP-92 NSCLC = tested on: HOP-92 NSCLC
CAKI-1 renal = tested on: CAKI-1 renal
HCC-2998 colon = tested on: HCC-2998 colon
KM12 colon = tested on: KM12 colon
MDA-MB-435 = tested on: MDA-MB-435
SK-MEL-28 melanoma = tested on: SK-MEL-28 melanoma
SR leukemia = tested on: SR leukemia
HOP-62 NSCLC = tested on: HOP-62 NSCLC
NCI-H522 lung = tested on: NCI-H522 lung
HT29 colon = tested on: HT29 colon
TK-10 renal = tested on: TK-10 renal
HCT-116 colon = tested on: HCT-116 colon
CCRF-CEM leukemia = tested on: CCRF-CEM leukemia
UO-31 renal = tested on: UO-31 renal
ACHN renal = tested on: ACHN renal
COLO 205 colon = tested on: COLO 205 colon
MOLT-4 leukemia = tested on: MOLT-4 leukemia
U251 CNS = tested on: U251 CNS
SF-539 CNS = tested on: SF-539 CNS
UACC-257 melanoma = tested on: UACC-257 melanoma
MDA-MB-231 breast = tested on: MDA-MB-231 breast
OVCAR-8 ovarian = tested on: OVCAR-8 ovarian
SF-268 CNS = tested on: SF-268 CNS
786-0 renal = tested on: 786-0 renal
SK-OV-3 ovarian = tested on: SK-OV-3 ovarian
SN12C renal = tested on: SN12C renal
NCI-H226 lung = tested on: NCI-H226 lung
M14 melanoma = tested on: M14 melanoma
DU-145 prostate = tested on: DU-145 prostate
MCF7 breast = tested on: MCF7 breast
NCI/ADR-RES ovarian = tested on: NCI/ADR-RES ovarian
SW-620 colon = tested on: SW-620 colon
SK-MEL-5 melanoma = tested on: SK-MEL-5 melanoma
OVCAR-5 ovarian = tested on: OVCAR-5 ovarian
UACC-62 melanoma = tested on: UACC-62 melanoma
NCI-H23 lung = tested on: NCI-H23 lung
HCT-15 colon = tested on: HCT-15 colon
IGROV1 ovarian = tested on: IGROV1 ovarian
SNB-19 CNS = tested on: SNB-19 CNS
HL-60(TB) leukemia = tested on: HL-60(TB) leukemia
A498 renal = tested on: A498 renal
RPMI-8226 leukemia = tested on: RPMI-8226 leukemia
HS 578T breast = tested on: HS 578T breast
SNB-75 CNS = tested on: SNB-75 CNS

## Cc1ccc(Cl)c(Nc2ccccc2C(=O)O)c1Cl
OVCAR-3 ovarian
  GI50: 20.3 µM
  TGI: 37.9 µM
K-562 leukemia
  GI50: 33.2 µM
  TGI: > 100 µM
BT-549 breast
  GI50: 21.7 µM
  TGI: 60.1 µM
RXF 393 renal
  GI50: 19.8 µM
  TGI: 46.8 µM
SK-MEL-2 melanoma
  GI50: 26.3 µM
  TGI: 76 µM
LOX IMVI melanoma
  GI50: 18.7 µM
  TGI: 44.9 µM
PC-3 prostate
  GI50: 29.9 µM
  TGI: > 100 µM
A549 NSCLC
  GI50: 30.4 µM
  TGI: > 100 µM
MALME-3M melanoma
  GI50: 23.1 µM
  TGI: 63.4 µM
T-47D breast
  GI50: 33.4 µM
  TGI: > 100 µM
NCI-H460 lung
  GI50: 25.9 µM
  TGI: 69.4 µM
SF-295 CNS
  GI50: 25.3 µM
  TGI: 76 µM
OVCAR-4 ovarian
  GI50: 29.9 µM
  TGI: 94.6 µM
HOP-92 NSCLC
  GI50: 16.2 µM
  TGI: 50 µM
CAKI-1 renal
  GI50: 34.6 µM
  TGI: > 100 µM
HCC-2998 colon
  GI50: 26.6 µM
  TGI: 66.4 µM
KM12 colon
  GI50: 29.3 µM
  TGI: 77.1 µM
MDA-MB-435
  GI50: 23.8 µM
  TGI: 85.3 µM
SK-MEL-28 melanoma
  GI50: 30.5 µM
  TGI: 89 µM
SR leukemia
  GI50: 25.4 µM
  TGI: 78.1 µM
HOP-62 NSCLC
  GI50: 31.3 µM
  TGI: > 100 µM
NCI-H522 lung
  GI50: 28.3 µM
  TGI: 87.2 µM
HT29 colon
  GI50: 35.6 µM
  TGI: > 100 µM
TK-10 renal
  GI50: 29.2 µM
  TGI: 86 µM
HCT-116 colon
  GI50: 19.6 µM
  TGI: 44.9 µM
CCRF-CEM leukemia
  GI50: 25.5 µM
  TGI: 90.1 µM
UO-31 renal
  GI50: 19.3 µM
  TGI: 45.5 µM
ACHN renal
  GI50: 32.7 µM
  TGI: > 100 µM
COLO 205 colon
  GI50: 22.2 µM
  TGI: 43 µM
MOLT-4 leukemia
  GI50: 29.9 µM
  TGI: 83.9 µM
U251 CNS
  GI50: 26 µM
  TGI: 82.4 µM
SF-539 CNS
  GI50: 23.6 µM
  TGI: 51.3 µM
UACC-257 melanoma
  GI50: 27.4 µM
  TGI: > 100 µM
MDA-MB-231 breast
  GI50: 32.1 µM
  TGI: > 100 µM
OVCAR-8 ovarian
  GI50: 29.6 µM
  TGI: > 100 µM
SF-268 CNS
  GI50: 31.8 µM
  TGI: > 100 µM
786-0 renal
  GI50: 23 µM
  TGI: 64.3 µM
SK-OV-3 ovarian
  GI50: 26 µM
  TGI: 65 µM
SN12C renal
  GI50: 30.7 µM
  TGI: > 100 µM
NCI-H226 lung
  GI50: 28 µM
  TGI: 82.4 µM
M14 melanoma
  GI50: 21.3 µM
  TGI: 62.6 µM
DU-145 prostate
  GI50: 28.9 µM
  TGI: 71.8 µM
MCF7 breast
  GI50: 34.2 µM
  TGI: > 100 µM
NCI/ADR-RES ovarian
  GI50: 26.3 µM
  TGI: 80.9 µM
SW-620 colon
  GI50: 34.4 µM
  TGI: > 100 µM
SK-MEL-5 melanoma
  GI50: 18.2 µM
  TGI: 33.5 µM
OVCAR-5 ovarian
  GI50: 31.9 µM
  TGI: 98.9 µM
UACC-62 melanoma
  GI50: 16.3 µM
  TGI: 32.7 µM
NCI-H23 lung
  GI50: 21.6 µM
  TGI: 51.4 µM
HCT-15 colon
  GI50: 22.7 µM
  TGI: 54.2 µM
IGROV1 ovarian
  GI50: 32.3 µM
  TGI: 93.4 µM
SNB-19 CNS
  GI50: 35 µM
  TGI: > 100 µM
HL-60(TB) leukemia
  GI50: 22.7 µM
  TGI: 51.4 µM
A498 renal
  GI50: 22.2 µM
  TGI: 87.4 µM
RPMI-8226 leukemia
  GI50: 26.6 µM
  TGI: 80.5 µM
HS 578T breast
  GI50: 25.7 µM
  TGI: > 100 µM

## Cc1cc(N(CCCl)CCCl)ccc1C=Nc1ccc2ccccc2c1
OVCAR-3 ovarian
  GI50: 14.8 µM
  TGI: > 77 µM
K-562 leukemia
  GI50: 32.4 µM
  TGI: > 100 µM
BT-549 breast
  GI50: 19.8 µM
  TGI: > 100 µM
RXF 393 renal
  GI50: 13.4 µM
  TGI: > 96 µM
SK-MEL-2 melanoma
  GI50: 40 µM
  TGI: 98 µM
LOX IMVI melanoma
  GI50: 22.1 µM
  TGI: > 100 µM
PC-3 prostate
  GI50: 17 µM
  TGI: > 100 µM
A549 NSCLC
  GI50: 14.2 µM
  TGI: > 100 µM
MALME-3M melanoma
  GI50: 50.3 µM
  TGI: > 100 µM
T-47D breast
  GI50: 3.32 µM
  TGI: > 100 µM
NCI-H460 lung
  GI50: 0.485 µM
  TGI: > 100 µM
SF-295 CNS
  GI50: 2.08 µM
  TGI: > 55.8 µM
OVCAR-4 ovarian
  GI50: 15.5 µM
  TGI: > 100 µM
HOP-92 NSCLC
  GI50: 11.8 µM
  TGI: 61.1 µM
CAKI-1 renal
  GI50: 1.51 µM
  TGI: > 100 µM
HCC-2998 colon
  GI50: 27.9 µM
  TGI: > 100 µM
KM12 colon
  GI50: 66.8 µM
  TGI: > 100 µM
MDA-MB-435
  GI50: 53.3 µM
  TGI: > 100 µM
SK-MEL-28 melanoma
  GI50: > 100 µM
  TGI: > 100 µM
SR leukemia
  GI50: 4.08 µM
  TGI: > 100 µM
HOP-62 NSCLC
  GI50: 25.2 µM
  TGI: > 100 µM
NCI-H522 lung
  GI50: 20.1 µM
  TGI: > 66.5 µM
HT29 colon
  GI50: > 85.3 µM
  TGI: > 100 µM
TK-10 renal
  GI50: 24.5 µM
  TGI: > 100 µM
HCT-116 colon
  GI50: 38 µM
  TGI: > 100 µM
SNB-75 CNS
  GI50: 2.52 µM
  TGI: > 89.7 µM
CCRF-CEM leukemia
  GI50: 4.85 µM
  TGI: > 100 µM
UO-31 renal
  GI50: 8.71 µM
  TGI: > 100 µM
ACHN renal
  GI50: 4.51 µM
  TGI: > 100 µM
COLO 205 colon
  GI50: 13.2 µM
  TGI: > 82.6 µM
MOLT-4 leukemia
  GI50: 4.52 µM
  TGI: > 100 µM
U251 CNS
  GI50: 9.98 µM
  TGI: > 100 µM
SF-539 CNS
  GI50: 4.97 µM
  TGI: > 100 µM
UACC-257 melanoma
  GI50: 3.17 µM
  TGI: > 39.6 µM
MDA-MB-231 breast
  GI50: 34.5 µM
  TGI: > 100 µM
OVCAR-8 ovarian
  GI50: 24.3 µM
  TGI: > 100 µM
SF-268 CNS
  GI50: 15.8 µM
  TGI: > 100 µM
786-0 renal
  GI50: 12.7 µM
  TGI: > 100 µM
SK-OV-3 ovarian
  GI50: 19.3 µM
  TGI: > 100 µM
SN12C renal
  GI50: 12.4 µM
  TGI: > 100 µM
NCI-H226 lung
  GI50: 0.297 µM
  TGI: 1.82 µM
M14 melanoma
  GI50: 31.7 µM
  TGI: > 100 µM
DU-145 prostate
  GI50: 7.71 µM
  TGI: > 100 µM
MCF7 breast
  GI50: 2.36 µM
  TGI: > 100 µM
NCI/ADR-RES ovarian
  GI50: 9.62 µM
  TGI: > 100 µM
SW-620 colon
  GI50: 41.9 µM
  TGI: > 100 µM
SK-MEL-5 melanoma
  GI50: 6.8 µM
  TGI: 27.6 µM
OVCAR-5 ovarian
  GI50: 2.52 µM
  TGI: > 100 µM
UACC-62 melanoma
  GI50: 2.45 µM
  TGI: 28.3 µM
NCI-H23 lung
  GI50: 6.12 µM
  TGI: > 100 µM
HCT-15 colon
  GI50: 27.6 µM
  TGI: > 100 µM
IGROV1 ovarian
  GI50: 28.5 µM
  TGI: > 100 µM
SNB-19 CNS
  GI50: 51.2 µM
  TGI: > 100 µM
HL-60(TB) leukemia
  GI50: 8.6 µM
  TGI: > 68.6 µM
A498 renal
  GI50: 0.226 µM
  TGI: 1.13 µM
RPMI-8226 leukemia
  GI50: 29.3 µM
  TGI: > 100 µM
HS 578T breast
  GI50: 34.3 µM
  TGI: > 100 µM
